Experimental findings from patent US20070232796A1, “Medical Solution, a Method for Producing Said Medical Solution and Use Thereof” (priority 2004, published 2007) are described below.

“Also recorded” adds a separate entry of the source.

In this data set the test system is Cell Growth. Nature of the data set: Inhibition of Cell Growth (ICG) as marker for cytotoxicity / biological reactivity. In kind it is cell-based. An excerpt:
FIG. 1 is a diagram showing the relation ship between Inhibition of Cell Growth (ICG) and concentration of 3,4-DGE in a solution.
In order to investigate and come up with the present invention, the present inventors studied the relationship between the different GDPs and came to the conclusion that the GDPs interact according to the reaction formula given above.

As for `O=CC(=O)C=CC(O)CO` (centres unmarked) [3,4-DGE, 3,4-dideoxyglucosone-3-ene], the “relationship between concentration of 3,4-DGE and Inhibition of Cell Growth (ICG)” value (FIG. 1, ICG used as measure/marker for biological reactivity) is “good dose relation between 3,4-DGE and cytotoxicity; also recorded: dose dependent relationship”. Further, the “toxicity compared with the other known GDPs” value (known GDPs: acetaldehyde, formaldehyde, glyoxal, methylglyoxal, 3-DG, 5-HMF) was “mast toxic of the known GDPs”.
